We go through three molecules from ChEMBL document CHEMBL1150677, “Novel tetramic acids and pyridone alkaloids, militarinones B, C, and D, from the insect pathogenic fungus Paecilomyces militaris” (J Nat Prod, 2003).

Series [1] relates to PC-12. Description: Cytotoxicity against rat PC12 cells assessed as effect on LDH release at 33 uM after 24 hrs. The format is cell-based. Particulars: pc-12, 24 h.
For series [2], the system named is PC-12. Description: Neuritogenic activity in rat PC12 cells at 100 uM after 16 hrs. Format: functional, cell-based.
The test system of series [3] is PC-12. Description: Cytotoxicity against rat PC12 cells assessed as effect on LDH release at 100 uM after 24 hrs. Particulars: pc-12, 24 h. The format is cell-based. (In general: LDH in the medium is a marker of cell lysis.)
Series [4] has as its system PC-12. In words: Cytotoxicity against rat PC12 cells assessed as effect on LDH release after 24 hrs. The format is cell-based. Particulars: pc-12, 24 h.

Structures are written as SMILES. Active and inactive are the calls of the source. The rule behind the calls is not given here.

`CC[C@@H](C)C[C@@H](C)/C=C(C)/C=C/C=C/C(=O)c1c(O)c(-c2ccc(O)cc2)c[nH]c1=O` (relative stereo) [MILITARINONE B]: the Activity in series [1] was 30.7%; in series [3], 74%. For the same molecule, the outcome in series [2] was inactive.
For the molecule `CC[C@@H](C)C[C@@H](C)/C=C(C)/C=C/C=C/C(O)=C1\C(=O)NC(C(O)c2ccc(O)cc2)C1=O` (relative stereo) [MILITARINONE C], the outcome in series [2] was Active. Moreover, in series [3], the Activity is reported as 16.8%.
Consider `CC[C@@H](C)C[C@@H](C)/C=C(C)/C=C/C=C/C(O)=C1\C(=O)NC(Cc2ccc(O)cc2)C1=O` (relative stereo) [MILITARINONE D], for which the result in series [2] was Active. Moreover, the Activity entry in series [4] is given as “Non-toxic”.
